Data published in patent US4537774A, “Hot-water extracts of neem bark” (priority 1980, dated 1985).
Values after ≈ are worked out from the molar mass of the structure shown. Starred links: 1 amine or outer side, 2 acyl side, 3 side chain; linkers in the order of their positions; H or OH if unused. Positions of bridges follow the written chain, without caps; N, C: chain ends. Non-standard residues stand in square brackets, D forms with d. Residues, ends and D or L forms follow the SMILES beside them. Chains are numbered I, II in the order given. Actinocin(9to1) = Cc1c2oc3c(C)ccc(C(=O)[*:1])c3nc-2c(C(=O)[*:2])c(N)c1=O; NMeV = CN[C@H](C(=O)O)C(C)C; Sar = CNCC(=O)O

Experiments:
[1] = tested on: mouse L-5178Y cells; assay: Effects on mouse L-5178Y cells (Test II); type: cell-based
Protocol: A medium containing 1×10^5 cells/ml. was prepared using mouse L-5178Y cells cultivated on RPMI-1640 medium containing 10% fetal bovine serum for 3 days. The medium was placed in a 96-well U-type microplate in an amount of 50 μl. per well.
A portion of the test material, which was one of the extracts according to the invention described in the above examples, was dissolved in the medium to a final concentration in the medium as shown in Table II below. The amount of the solution per well was 50 μl. The test material thus prepared was incubated in a carbon-dioxide incubator at 37° C. for 2 days. After completion of the incubation, the cells were collected and counted well by well, and the cell counts were compared with cell count of control which contained no test material. The cell count of control was approximately 8.6×10^5 /ml. In order to confirm the effects of the test materials, the same test was done with mitomycin C (MMC) or bleomycin (BLM). In the table below, T/C represents the ratio of count of the cells treated with the test material to that with no test material added. ID50 is the concentration of the test material required for decreasing concentration of the cells to 1/2 that of the control.

[2] = tested on: sarcoma 180 ascites tumor; assay: Effects on sarcoma 180 ascites tumor (Test III); type: in vivo, mouse; conditions: for Rating / T/C (%): Table III, i.p.; for T/C (%): TPCV ratio
Protocol: A portion of each of the extraction fractions was suspended or dissolved in 0.5% suspension of carboxymethylcellulose (CMC) in a phosphate buffer saline solution (PBS commercially available from GIBCO Laboratories, containing ca. 9.5 mM phosphate) to a predetermined concentration.
Mouse sarcoma 180 tumor cells which have been subcultivated intraperitoneally in ICR mice were drawn from the mouse together with the ascites and diluted with physiological saline solution to a cell count of 10^8 per ml. The tumor cell suspension thus prepared was transplanted by means of a syringe intraperitoneally into 4 week-old male ICR mice at a dose of 0.1 ml. Consequently, the cell count transplanted per mouse was 1×10^7.
The test material as prepared above was intraperitoneally administered at a dose of 0.1 ml. per mouse for 4 days once a day from the next day of the transplantation of mouse sarcoma 180 tumor cells. A group of 6 mice was employed for each concentration of each test material. […] As a control was administered the CMC-containing PBS as described above only in the same way as above. The dose is expressed as weight per kg. bodyweight of mouse.
On the 7th day of transplantation of the tumor cells bodyweight of each mouse was measured (X). Then, ascites was thoroughly drawn from the mouse, followed by measurement of the bodyweight (Y). X-Y is taken as the amount of ascites.
The drawn ascites was then introduced into a hematocrit tube and then centrifuged at 15,000 G for 5 minutes using a hematocrit rotor at a low temperature. There was thus made determination of the ascitocrit value, that is, proportion of the cells present in the ascites which corresponded to the hematocrit value in hematology. The value multiplied by volume of the ascites gives the volume of the cells present in the ascites. This is designated as total packed cell volume (TPCV).
Effect on the tumor was rated ineffective (-) when the TPCV ratio of the treated to the control (T/C) was 100-66%, plus 1 (+) when it was 65-41%, plus 2 (++) when it was 40-11%, and plus 3 (+++) when it was 10-0%.
(§1) The neem extracts produced in the above examples were tested for effects on sarcoma 180 ascites and solid tumors according to the methods described in the aforementioned Tests.

[3] = tested on: sarcoma 180 solid tumor; assay: Effects on sarcoma 180 solid tumor (Test IV); type: in vivo, mouse; conditions: for Rating / T/C (%): Table IV; for T/C (%): tumor weight ratio
Protocol: Test materials were prepared in the same manner as in Test III under (1).
A cell suspension containing 1×10^8 cells per ml. was prepared in the same way as in Test III under (2). Four week old-ICR mice was innoculated subcutaneously on the back with 0.1 ml. of the suspension by means of a syringe.
As in Test III under (3), a group of 6 animals was used for each concentration of each test material.
Grown tumor tissue was resected on the […] of the tumor cell transplantation and weighed. An average for the group of 6 animals was taken for the evaluation. The effect was evaluated on the basis of ratio of the average weight for the treated animals to that of the control animals (T/C). […] Ratios (T/C) of 100-71% were rated ineffective (-), of 70-51% plus 1 (+), of 50-21% plus 2 (++), and of 20-0% plus 3 (+++).
as §1

[4] = dose 10 μg./kg. (so in the source)
[5] = dose 0.1 μg./kg. (so in the source)
[6] = dose 20 μg./kg. (so in the source)
[7] = dose 33 μg./kg. (so in the source)
[8] = dose 0.5 μg./kg. (so in the source)
[9] = dose 1.5 μg./kg. (so in the source)
[10] = Tables V/VII, mice, 1.5 mg./kg.

With bleomycin [BLM] the ID50 ([1]; 37° C., 2 days) was 7.8 µg/mL, the Rating [2, 4] was “+++ (plus 3 (+++) when it was 10-0%)” and the “T/C (%)” value [2, 4] was 0%. For the same molecule, the Rating ([3]; dose 10 mg./kg.) was “++ (of 50-21% plus 2 (++))” and the “T/C (%)” value ([3]; dose 10 mg./kg.) was 43.5%.
For `Cc1c2oc3c(C)ccc(C(=O)N[C@@H]4C(=O)N[C@H](C(C)C)C(=O)N5CCC[C@H]5C(=O)N(C)CC(=O)N(C)[C@@H](C(C)C)C(=O)O[C@@H]4C)c3nc-2c(C(=O)N[C@@H]2C(=O)N[C@H](C(C)C)C(=O)N3CCC[C@H]3C(=O)N(C)CC(=O)N(C)[C@@H](C(C)C)C(=O)O[C@@H]2C)c(N)c1=O` [ACD, actinomycin D] (I: T[dV]P[Sar][NMeV] / II: T[dV]P[Sar][NMeV]; ester I:1-I:C, II:1-II:C; linker I:N-II:N via Actinocin(9to1)), the Rating [2, 5] was “+++ (plus 3 (+++) when it was 10-0%)”, the “T/C (%)” value [2, 5] was 0% and the Rating ([3]; dose 0.1 mg./kg.) was “- (Ratios (T/C) of 100-71% were rated ineffective (-))”. For the same molecule, the “T/C (%)” value ([3]; dose 0.1 mg./kg.) was 102.4%.
In the case of `O=c1[nH]cc(F)c(=O)[nH]1` [Example 5-Fu, 5-fluorouracil], the Rating [2, 6] is reported as “+++ (plus 3 (+++) when it was 10-0%)”, the “T/C (%)” value [2, 6] is reported as 0% and the Rating ([3]; dose 20 mg./kg.) is reported as “+ (of 70-51% plus 1 (+))”. The “T/C (%)” value ([3]; dose 20 mg./kg.) was 47.8%.
In the case of `O=P1(N(CCCl)CCCl)NCCCO1` (stereo not drawn) [CYP, cyclophosphamide], the Rating [2, 7] is reported as “+++ (plus 3 (+++) when it was 10-0%)”, the “T/C (%)” value [2, 7] is reported as 0% and the Rating ([3]; dose 33 mg./kg.) is reported as “+++ (of 20-0% plus 3 (+++))”. The “T/C (%)” value ([3]; dose 33 mg./kg.) was 0%.
In the case of `CO[C@@]12[C@H](COC(N)=O)C3=C(C(=O)C(C)=C(N)C3=O)N1C[C@@H]1N[C@@H]12` [MMC, mitomycin C], the IC50 ([1]; Mus musculus, L5178Y, 48 h, read-out: ID50) is reported as 0.09 µg/mL (≈ 0.269 µM), the Rating [2, 8] is reported as “+++ (plus 3 (+++) when it was 10-0%)” and the “T/C (%)” value [2, 8] is reported as 0%. The Rating [2, 9] was “+++ (plus 3 (+++) when it was 10-0%)”, the “T/C (%)” value [2, 9] was 0% and the “Ascites tumor Rating” value [2, 10] was “+++ (plus 3 (+++) when it was 10-0%)”. The “Ascites tumor T/C” value [2, 10] was 0, the Rating ([3]; dose 0.5 mg./kg.) was “- (Ratios (T/C) of 100-71% were rated ineffective (-))” and the “T/C (%)” value ([3]; dose 0.5 mg./kg.) was 71.0%. The Rating ([3]; dose 1.5 mg./kg.) was “++ (of 50-21% plus 2 (++))”, the “T/C (%)” value ([3]; dose 1.5 mg./kg.) was 32.5% and the “Solid tumor Rating” value [3, 10] was “++ (of 50-21% plus 2 (++))”. The “Solid tumor T/C” value [3, 10] was 38.9.
